Results: US20080090848A1, “Substituted Purinyl Derivatives With Immunomodulator And Chemoprotective Activity And Use Alone Or With Medium-Chain Length Fatty Acids Or Glycerides” (priority 2004, published 2008)
Where two headings read alike, the source gives them in different places.

Legend:
hematopoietic cells [1] = test: Chemoprotection: in vivo protection of hematopoietic cells by compound II in CY-treated mice (Example 4); design: species or system C57BL/6 mice
Description: (§1) Female C57BL/6 mice, 6 to 8 weeks old, were immunosuppressed by treatment with 200 mg/kg of cyclophosphamide (CY) administered intravenously at day 0. To examine the chemoprotective effect of compound I, mice were pre-treated intraperitoneally at day −3, −2 and −1 with 50 mg/kg of the compound. Mice were sacrificed at day +5 by cardiac puncture and cervical dislocation. Then, cell suspensions were prepared from thymus, spleen and bone marrow as follows.
(§2) Tissues were crushed in PBS buffer and contaminating erythrocytes were lysed in ACK buffer (155 mM NH4Cl, 12 mM NaHCO3, 0.1 mM EDTA, pH 7.3) for five minutes. Cells were then collected by centrifugation and washed three times in PBS and resuspended in tissue culture medium. Cells were counted with a Coulter counter.
The effect of compound II on in vivo induction of hematopoietic cell proliferation or protection was determined following the protocol described in Example 1. Oral administration of compound II (50 mg/kg or 100 mg/kg) was performed on day −3, −2 and −1.

[2] = system: bone marrow progenitor cell; test: Bone marrow progenitor cells (CFU-GEMM) after tricaprin, compound I or both in CY-treated mice (Example 3); type: in vivo, C57BL/6 mice; conditions: tricaprin 60.5 mM oral and/or compound I 50 mg/kg
Description: as §1
(§3) The effect of tricaprin, compound I, and the combination of both compounds on in vivo induction of hematopoietic cell proliferation or protection was determined following the protocol described in Example 1. Oral administration of tricaprin (60.5 mM) and/or peritoneal injection of compound I were performed on day −3, −2 and −1.

hematopoietic cells [3] = test: Chemoprotection: in vivo protection of hematopoietic cells by compound I in CY-immunosuppressed mice (Example 1); design: species or system C57BL/6 mice; conditions: for Cell count, peripheral blood white cells / Cell count, spleen red cells / Cell count, spleen white cells: CY 200 mg/kg i.v. day 0, compound I 50 mg/kg i.p. day −3, −2, −1, sacrifice day +5
Description: as §1, §2

bone marrow red cells = test: Chemoprotection: combination of tricaprin and compound I in CY-treated mice, bone marrow red cell count (Example 3); type: in vivo, C57BL/6 mice; conditions: tricaprin 60.5 mM oral and/or compound I 50 mg/kg peritoneal injection, day −3, −2, −1
Description: as §1, §2, §3

[4] = rat, in vivo, po; cited from earlier work
[5] = i.v., rat; cited from earlier work
hematopoietic cells [6] = test: Chemoprotection: combination of histamine dihydrochloride and compound I in CY-treated mice (Example 6); type: in vivo, C57BL/6 mice; conditions: for Effect on bone marrow white cell count (FIG. 5): intravenous histamine dihydrochloride 25 mg/kg and/or compound I 5 mg/kg, day −3, −2, −1, CY-treated mice, compared to CY
Description: (§4) Mice were sacrificed at day +5 by cardiac puncture and cervical dislocation. Then, cell suspensions were prepared from thymus, spleen and bone marrow as follows. Tissues were crushed in PBS buffer and contaminating erythrocytes were lysed in ACK buffer (155 mM NH4Cl, 12 mM NaHCO3, 0.1 mM EDTA, pH 7.3) for five minutes. Cells were then collected by centrifugation and washed three times in PBS and resuspended in tissue culture medium. Cells were counted with a Coulter counter. Effect of low dose of histamine, compound I, and the combination of both compounds on in vivo induction of hematopoietic cell proliferation or protection was undertaken following the protocol described in Example 1.

hematopoietic cells [7] = test: Chemoprotection: combination of sodium caprate and compound I in CY-treated mice (Example 2); type: in vivo, C57BL/6 mice; conditions: for Effect on bone marrow red cell count (FIG. 2) / Effect on bone marrow white cell count (FIG. 3): low dose, intravenous: sodium caprate 1.21 mM, compound I 5 mg/kg, sodium caprate or compound I used alone; for Effect on peripheral red blood cell count (FIG. 1): sodium caprate 60.5 mM oral and/or compound I 50 mg/kg i.p., day −3, −2, −1, versus respective CY control
[8] = cited from earlier work
MC-38 colon cancer = test: Survival of mice with MC-38 colon cancer treated with a toxic regimen of 5-fluorouracil; type: in vivo; conditions: compound I plus toxic regimen of 5-fluorouracil versus 5-fluorouracil alone (e.g., 40 mg/kg)
CTLs = conditions: compared with interleukin 2; cited from earlier work
hematopoietic cells [9] = test: Chemoprotection: combination of histamine dihydrochloride and compound II in CY-treated mice (Example 7); type: in vivo, C57BL/6 mice; conditions: histamine dihydrochloride 25 mg/kg i.v. and/or compound II 100 mg/kg oral, day −3, −2, −1, compared to CY
Description: as §1, §2
Effect of low dose of histamine, compound II, and the combination of both compounds on in vivo induction of hematopoietic cell proliferation or protection was undertaken following the protocol described in Example 1. Intravenous administration of histamine dihydrochloride (25 mg/kg) and oral administration of compound II (100 mg/kg) were performed on day −3, −2 and −1.

hematopoietic cells [10] = test: Chemoprotection: combination of sodium caprate and compound II in CY-treated mice (Example 5); type: in vivo, C57BL/6 mice; conditions: oral sodium caprate 60.5 mM and/or compound II 50 mg/kg or 100 mg/kg, day −3, −2, −1
Description: as §4, with “The effect” for “Effect”, “sodium caprate,” for “low dose of histamine,”, “II,” for “I,”, “determined” for “undertaken”

[11] = CY alone (200 mg/kg i.v. day 0)
[12] = pre-treatment 50 mg/kg i.p. in CY-treated mice, versus CY
[13] = CY + compound II 50 mg/kg oral, day −3, −2, −1
[14] = CY + compound II 100 mg/kg oral, day −3, −2, −1
[15] = oral pre-treatment in CY-treated mice, dose not given

O=P1(N(CCCl)CCCl)NCCCO1 (stereo not shown) [CY, cyclophosphamide, reference compound]
Cell count, bone marrow red cells (hematopoietic cells [1]; [11]): 31.6 ± 5.0 10^6
Cell count, bone marrow white cells (hematopoietic cells [1]; [11]): 19.8 ± 4.4 10^6
CFU-GEMM (colony number), bone marrow [2]: 1 colony number
Cell count, peripheral blood white cells (hematopoietic cells [3]): 1.3 ± 0.6 10^6
Cell count, spleen red cells (hematopoietic cells [3]): 341 ± 107 10^6
Cell count, spleen white cells (hematopoietic cells [3]): 34. ± 9 10^6
Bone marrow red cell count (bone marrow red cells): 31.5 ± 3.5 10^6

CCCCCCCCCC(=O)OCC(COC(=O)CCCCCCCCC)OC(=O)CCCCCCCCC [Tricaprin, tricaprin]
CFU-GEMM (colony number), bone marrow [2]: 0.5 colony number
Bone marrow red cell count (bone marrow red cells): 33.8 ± 3.7 10^6

CCCCCCCC(=O)O [caprylic acid]
LD50 [4]: 10080 mg/kg

CN(C)c1ncnc2c1ncn2CCCCCOC(=O)NC(CCCNC(=N)N)C(=O)O (stereo not drawn) [compound I, [[5-[6-(N,N-dimethylamino)purin-9-yl]pentoxy]-carbonyl]d-arginine]
LD50 [5]: more than 500 mg/kg
Effect on bone marrow white cell count (FIG. 5) (hematopoietic cells [6]): No significant effect
Effect on bone marrow red cell count (FIG. 2) (hematopoietic cells [7]): No effect
Effect on bone marrow white cell count (FIG. 3) (hematopoietic cells [7]): No effect
Effect on peripheral red blood cell count (FIG. 1) (hematopoietic cells [7]): significant increase
In vivo antitumor activity [8]: significant in vivo antitumor activity
CFU-GEMM (colony number), bone marrow [2]: 1 colony number
Survival of animals (MC-38 colon cancer): improved survival
Cell count, peripheral blood white cells (hematopoietic cells [3]): 2.6 ± 0.6 10^6
Cell count, spleen red cells (hematopoietic cells [3]): 468 ± 104 10^6
Cell count, spleen white cells (hematopoietic cells [3]): 48 ± 5 10^6
Spleen red cell count compared to non-immunosuppressed animals (control) (hematopoietic cells [3]; pre-treatment 50 mg/kg i.p. in CY-treated mice): some treated animals returned to a “baseline level”
Effect on peripheral white blood cell count (in words) (hematopoietic cells [3]; [12]): significant increase
Effect on spleen red cell count (in words) (hematopoietic cells [3]; [12]): significant increase
Effect on spleen white cell count (in words) (hematopoietic cells [3]; [12]): significant increase
Bone marrow red cell count (bone marrow red cells): 37.4 ± 7.1 10^6
In vitro stimulation of CTLs (CTLs): comparable to the immune growth factor or cytokine interleukin 2

CN(C)c1ncnc2c1ncn2CCCCCO [compound II]
Effect on spleen white cell count (FIG. 7) (hematopoietic cells [9]): No significant effect
Cell count, bone marrow red cells (hematopoietic cells [1]; [13]): 29.4 ± 2.7 10^6
Cell count, bone marrow white cells (hematopoietic cells [1]; [13]): 17.4 ± 3.5 10^6
Cell count, bone marrow red cells (hematopoietic cells [1]; [14]): 43.9 ± 16.3 10^6
Cell count, bone marrow white cells (hematopoietic cells [1]; [14]): 30.5 ± 9.4 10^6
Bone marrow red and white cell counts compared to non-immunosuppressed animals (control) (hematopoietic cells [1]; oral pre-treatment in CY-treated mice): some treated animals return to a “baseline level”
Effect on bone marrow red cell count (in words) (hematopoietic cells [1]; [15]): significant increase
Effect on bone marrow white cell count (in words) (hematopoietic cells [1]; [15]): significant increase

Cl.Cl.NCCc1c[nH]cn1 [histamine, histamine dihydrochloride]
Effect on spleen white cell count (FIG. 7) (hematopoietic cells [9]): No significant effect
Stimulation of hematopoiesis (hematopoietic cells [6]; histamine alone, general statement): weakly stimulate hematopoiesis
Effect on bone marrow white cell count (FIG. 5) (hematopoietic cells [6]): No significant effect

c1ccc([C@H]2CN3CCSC3=N2)cc1 [levamisole, reference compound]
LD50 [5]: 16 mg/kg

CCCCCCCCCC(=O)[O-].[Na+] [sodium caprate]
Effect on bone marrow red cell count (FIG. 2) (hematopoietic cells [7]): No effect
Effect on bone marrow white cell count (FIG. 3) (hematopoietic cells [7]): No effect
Effect on peripheral red blood cell count (FIG. 1) (hematopoietic cells [7]): significant increase
Effect on peripheral red blood cell count (FIG. 4) (hematopoietic cells [10]): weak increase
